The record followed here is ChEMBL document CHEMBL1201862, “PubChem BioAssay data set” (2004).

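Grown in 96-well plates, cells were treated for 48 hours with each compound at five concentrations. Insufficient inhibition: endpoint recorded as highest concentration tested. GI50: concentration for 50% inhibition of growth.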 Active and inactive are the calls of the source. Rule as the data show it: active = GI50 up to about 1.1 µM and inactive = higher. Some results are limits rather than exact numbers.

Some test systems named below: UACC-257; SNB-19; MDA-MB-435; MDA-N; PC-3; SN12C; OVCAR-5; IGROV-1; 786-0; RXF 393; BT-549; HCT-15; T47D; OVCAR-8; MDA-MB-231.
Holding throughout (experiment): NCI tumour cell line growth inhibition, 48 h

In the case of `CC1C2(C)OCC(C#N)(C(=N)O2)C1(C#N)C#N` (stereo not given), the GI50 with UACC-257 was 23.9 µM (inactive); in the assay with SNB-19, 43.5 µM (inactive); in the assay with MDA-MB-435, 28.6 µM (inactive); with MDA-N it was 18.3 µM (inactive); with PC-3, 24.2 µM (inactive); in the assay with SN12C, 15.7 µM (inactive). The GI50 with OVCAR-5 is 29.1 µM (inactive); in the assay with IGROV-1, 33 µM (inactive); with 786-0, 21.3 µM (inactive); in the assay with RXF 393, 27.4 µM (inactive); with BT-549, 35.2 µM (inactive); with HCT-15, 13.5 µM. In addition, the GI50 in the assay with T47D is 12.6 µM (inactive); in the assay with OVCAR-8, 23.9 µM (inactive); in the assay with MDA-MB-231 it was 17.9 µM (inactive).
For the compound `CCC1([N+](=O)[O-])CC2C=CC1C2` (stereo not given), the GI50 in the assay on UACC-257, with SNB-19, with MDA-MB-435, with MDA-N, with PC-3 and in the assay with SN12C was > 100 µM (inactive) throughout. Moreover, the GI50 in the assay on OVCAR-5 was > 100 µM (inactive); in the assay with IGROV-1, > 100 µM (inactive); in the assay on 786-0, > 100 µM (inactive); with RXF 393, > 100 µM (inactive); in the assay with BT-549 it was > 100 µM (inactive); in the assay on HCT-15, more than 100 µM. Also, the GI50 in the assay with T47D, with OVCAR-8 and with MDA-MB-231 was > 100 µM (inactive) throughout.
On to `CCc1nc(N)nc(N)c1-c1ccc2nnn(O)c2c1`, for which the GI50 in the assay with UACC-257, in the assay with SNB-19, in the assay with MDA-MB-435, with MDA-N, in the assay on PC-3 and with SN12C was > 100 µM (inactive) in each case. Also, the GI50 was > 100 µM (inactive) in the assay with OVCAR-5; > 100 µM (inactive) in the assay on IGROV-1; > 100 µM (inactive) in the assay with 786-0; > 100 µM (inactive) with RXF 393; > 100 µM (inactive) with BT-549; more than 100 µM with HCT-15. The GI50 with T47D, with OVCAR-8 and with MDA-MB-231 was > 100 µM (inactive) each time.
As to `Cc1coc2c1C(OC(=O)C(C)C)C1(C)C(C)CCC(O)C1C2=O` (stereo not given), the GI50 in the assay with UACC-257 is > 100 µM (inactive); in the assay on MDA-MB-435 it was > 100 µM (inactive); with MDA-N it was > 100 µM (inactive); in the assay on PC-3, 97.9 µM (inactive); in the assay on SN12C, > 100 µM (inactive); in the assay on OVCAR-5, > 100 µM (inactive). Further, the GI50 in the assay on IGROV-1 was > 100 µM (inactive); in the assay on 786-0, > 100 µM (inactive); in the assay with RXF 393, > 100 µM (inactive); in the assay on BT-549 it was > 50.8 µM (inactive); in the assay with HCT-15 it was more than 100 µM; in the assay on T47D it was > 100 µM (inactive). In addition, the GI50 with OVCAR-8 and in the assay with MDA-MB-231 was > 100 µM (inactive) each time.
`COc1ccc(/N=N/c2c(C)c(C#N)c(=S)n(C3OC(COC(C)=O)C(OC(C)=O)C(OC(C)=O)C3OC(C)=O)c2-c2ccccc2)cc1` (stereo not given): the GI50 with UACC-257 is 22.4 µM (inactive); in the assay with SNB-19, 11 µM (inactive); in the assay on MDA-MB-435, 10.3 µM (inactive); in the assay on MDA-N, 9.1 µM (inactive); with PC-3, 5.98 µM (inactive); in the assay on SN12C, 7.96 µM (inactive). Further, the GI50 with OVCAR-5 is 13.2 µM (inactive); in the assay with 786-0, 3.12 µM (inactive); with RXF 393, 11.5 µM (inactive); in the assay on BT-549, 5.33 µM (inactive); in the assay with HCT-15 it was 14.9 µM; in the assay on T47D, 19.4 µM (inactive). The GI50 in the assay on MDA-MB-231 was 6.04 µM (inactive).
`N#CC(c1ccccc1)N(CCc1ccccc1)C(=O)c1ccccc1` (stereo not given): the GI50 with UACC-257 was > 100 µM (inactive); in the assay on SNB-19, 26.2 µM (inactive); with MDA-MB-435, > 100 µM (inactive); in the assay with MDA-N, > 100 µM (inactive); in the assay on PC-3, > 93.8 µM (inactive); in the assay on SN12C it was > 100 µM (inactive). Further, the GI50 was > 100 µM (inactive) with OVCAR-5; > 74 µM (inactive) in the assay on IGROV-1; 27.7 µM (inactive) in the assay on 786-0; > 52.1 µM (inactive) with RXF 393; > 56.2 µM (inactive) in the assay with BT-549; more than 100 µM in the assay on HCT-15. The GI50 with T47D is > 100 µM (inactive); in the assay on OVCAR-8 it was 38.7 µM (inactive); with MDA-MB-231 it was 47.8 µM (inactive).
On to `O=S(=O)(CCC[C@H]1[C@@H](CCOCc2ccccc2)C2CCCN1O2)c1ccccc1` (stereo not given in full), for which the GI50 with UACC-257, in the assay on SNB-19, in the assay with MDA-MB-435, with MDA-N, with PC-3 and with SN12C was > 100 µM (inactive) each time. In addition, the GI50 was > 100 µM (inactive) in the assay on OVCAR-5; > 100 µM (inactive) in the assay with IGROV-1; > 100 µM (inactive) with 786-0; > 100 µM (inactive) in the assay with RXF 393; 41 µM (inactive) with BT-549; more than 100 µM in the assay with HCT-15. Besides, the GI50 in the assay with T47D was 59.2 µM (inactive); with OVCAR-8, > 100 µM (inactive); with MDA-MB-231, > 100 µM (inactive).
In the case of `COc1ccc([C@H]2CC(=O)C[C@H](c3ccc(OC)cc3)C23C(=O)c2ccccc2C3=O)cc1`, the GI50 with UACC-257 is 2.29 µM (inactive); with SNB-19 it was 5.35 µM (inactive); in the assay on MDA-MB-435 it was 1.95 µM (inactive); in the assay on MDA-N, 2.07 µM (inactive); in the assay with PC-3, 4.21 µM (inactive); with SN12C it was 7.57 µM (inactive). The GI50 is 12.6 µM (inactive) in the assay on OVCAR-5; 5.28 µM (inactive) in the assay with IGROV-1; 5.57 µM (inactive) with 786-0; 2.92 µM (inactive) in the assay on RXF 393; 5.65 µM (inactive) with BT-549; 4.02 µM in the assay on HCT-15. Also, the GI50 in the assay on T47D is 4.31 µM (inactive); in the assay on OVCAR-8 it was 9.75 µM (inactive); in the assay on MDA-MB-231, 2.39 µM (inactive).
Take `C[N+]1(C)C(c2ccccc2)C(=O)O[B@-]1(F)c1ccccc1` (stereo not given in full): the GI50 in the assay with UACC-257, in the assay on SNB-19, in the assay on MDA-MB-435, with MDA-N, in the assay with PC-3 and in the assay with SN12C was > 100 µM (inactive) each time. For the same compound, the GI50 in the assay on OVCAR-5 is > 100 µM (inactive); in the assay with IGROV-1, > 100 µM (inactive); in the assay with 786-0, > 100 µM (inactive); in the assay with BT-549, > 100 µM (inactive); in the assay on HCT-15 it was more than 100 µM; with T47D it was > 100 µM (inactive). In addition, the GI50 in the assay on OVCAR-8 and in the assay on MDA-MB-231 was > 100 µM (inactive) in each case.
Consider `CN(C)CC[N+](C)(C)[BH2-]C(O)O`, for which the GI50 with UACC-257, in the assay with SNB-19, in the assay on MDA-MB-435, in the assay on MDA-N, in the assay with PC-3 and with SN12C was > 100 µM (inactive) in each case. For the same compound, the GI50 in the assay with OVCAR-5 was > 100 µM (inactive); in the assay on IGROV-1 it was > 100 µM (inactive); in the assay with 786-0 it was > 100 µM (inactive); in the assay on RXF 393, > 100 µM (inactive); in the assay on BT-549 it was > 100 µM (inactive); with HCT-15, more than 100 µM. The GI50 in the assay with T47D and with MDA-MB-231 was > 100 µM (inactive) throughout.
